Results on 7 molecules are retold here after PubChem BioAssay AID330 (DTP/NCI, 2004).

The test system of the assay is P388 leukemia ip, CD2F1 mice, survival T/C. The experiment in a line: NCI In Vivo Anticancer Drug Screen. Data for tumor model P388 Leukemia (intraperitoneal) in CD2F1 (CDF1) mice. As to conditions: endpoint: median survival time, higher = longer survival. Put shortly: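 Mice carrying the transplanted tumor received test compound or vehicle. Survival was recorded in each group, and the value is the treated-group measurement divided by that of the vehicle-treated control group.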

[1] abbreviates: dose: 50.0 mg/kg/injection, schedule: Q01DX005 (ip), vehicle: saline.
[2] abbreviates: dose: 100.0 mg/kg/injection, schedule: Q01DX005 (ip), vehicle: saline.
The mark [3] stands for this setting: dose: 200.0 mg/kg/injection, schedule: Q01DX005 (ip), vehicle: saline.

Values joined by “and” are separate entries in the source; they are usually repeats but may differ in a detail not shown here. Identical values can stand only once. Inconclusive results and toxic doses are left out.

As to `Nc1ncn(C2OC(CO)C(O)C2O)c(=O)n1` (stereo not drawn), the T/C by setting is: (dose: 0.19 mg/kg/injection, schedule: Q01DX009 (ip), vehicle: saline with Tween-80) 122 % of control; (dose: 0.38 mg/kg/injection, schedule: Q01DX009 (ip), vehicle: saline with Tween-80) 154 % of control; (dose: 0.75 mg/kg/injection, schedule: Q01DX009 (ip), vehicle: Klucel (hydroxypropylcellulose) (HPC)) 163 % of control; (dose: 0.75 mg/kg/injection, schedule: Q01DX009 (ip), vehicle: saline with Tween-80) 181 % of control; (dose: 0.75 mg/kg/injection, schedule: Q01DX009 (ip), vehicle: saline) 166 % of control and 172 % of control and 173 % of control; (dose: 1.0 mg/kg/injection, schedule: Q01DX005 (ip), vehicle: saline) 172 % of control. Moreover, the T/C by setting is: (dose: 1.0 mg/kg/injection, schedule: Q01DX005 (ip), vehicle: water) 150 % of control; (dose: 1.5 mg/kg/injection, schedule: Q01DX009 (ip), vehicle: Klucel (hydroxypropylcellulose) (HPC)) 190 % of control; (dose: 1.5 mg/kg/injection, schedule: Q01DX009 (ip), vehicle: saline with Tween-80) 195 % of control; (dose: 1.5 mg/kg/injection, schedule: Q01DX009 (ip), vehicle: saline) 171 % of control and 185 % of control; (dose: 1.56 mg/kg/injection, schedule: Q01DX009 (ip), vehicle: saline) 224 % of control; (dose: 2.0 mg/kg/injection, schedule: Q01DX005 (ip), vehicle: water) 174 % of control. The T/C is 209 % of control and 210 % of control (dose: 2.0 mg/kg/injection, schedule: Q01DX009 (ip), vehicle: saline); 162 % of control (dose: 2.59 mg/kg/injection, schedule: Q04DX003 (ip), vehicle: saline); 233 % of control (dose: 2.7 mg/kg/injection, schedule: Q01DX009 (ip), vehicle: saline); 245 % of control (dose: 3.0 mg/kg/injection, schedule: Q01DX009 (ip), vehicle: Klucel (hydroxypropylcellulose) (HPC)); 262 % of control (dose: 3.13 mg/kg/injection, schedule: Q01DX009 (ip), vehicle: saline); 215 % of control (dose: 4.0 mg/kg/injection, schedule: Q01DX005 (ip), vehicle: water). For the same molecule, the T/C reads like this: (dose: 4.0 mg/kg/injection, schedule: Q01DX009 (ip), vehicle: saline) 245 % of control and 265 % of control; (dose: 4.32 mg/kg/injection, schedule: Q04DX003 (ip), vehicle: saline) 178 % of control; (dose: 4.5 mg/kg/injection, schedule: Q01DX009 (ip), vehicle: saline) 282 % of control; (dose: 6.0 mg/kg/injection, schedule: Q01DX009 (ip), vehicle: Klucel (hydroxypropylcellulose) (HPC)) 95 % of control; (dose: 7.2 mg/kg/injection, schedule: Q04DX003 (ip), vehicle: saline) 200 % of control; (dose: 8.0 mg/kg/injection, schedule: Q01DX005 (ip), vehicle: saline) 252 % of control and 256 % of control and 290 % of control. The T/C (dose: 8.0 mg/kg/injection, schedule: Q01DX005 (ip), vehicle: water) is 66 % of control; the T/C (dose: 8.64 mg/kg/injection, schedule: Q04DX002 (ip), vehicle: saline) was 160 % of control; the T/C (dose: 12.0 mg/kg/injection, schedule: Q04DX003 (ip), vehicle: saline) was 247 % of control; the T/C (dose: 12.5 mg/kg/injection, schedule: Q01DX005 (ip), vehicle: saline) is 162 % of control; the T/C (dose: 12.5 mg/kg/injection, schedule: Q01DX009 (ip), vehicle: saline) is 196 % of control; the T/C (dose: 14.4 mg/kg/injection, schedule: Q04DX002 (ip), vehicle: saline) was 175 % of control. The T/C by setting is: (dose: 16.0 mg/kg/injection, schedule: Q01DX005 (ip), vehicle: saline) 273 % of control; (dose: 20.0 mg/kg/injection, schedule: Q01DX009 (ip), vehicle: saline) 223 % of control; (dose: 20.0 mg/kg/injection, schedule: Q04DX003 (ip), vehicle: saline) 279 % of control; (dose: 24.0 mg/kg/injection, schedule: Q04DX002 (ip), vehicle: saline) 200 % of control; (dose: 25.0 mg/kg/injection, schedule: Q01DX005 (ip), vehicle: saline) 176 % of control; (dose: 25.0 mg/kg/injection, schedule: Q01DX009 (ip), vehicle: saline) 196 % of control. The T/C (dose: 33.0 mg/kg/injection, schedule: Q01DX009 (ip), vehicle: saline) is 233 % of control; the T/C (dose: 40.0 mg/kg/injection, schedule: Q04DX002 (ip), vehicle: saline) was 217 % of control; the T/C (dose: 44.0 mg/kg/injection, schedule: Q01DX005 (ip), vehicle: saline) is 178 % of control; the T/C (dose: 49.0 mg/kg/injection, schedule: Q01DX001 (ip), vehicle: saline) is 165 % of control; the T/C under setting [1] was 189 % of control; the T/C (dose: 50.0 mg/kg/injection, schedule: Q01DX009 (ip), vehicle: saline) is 215 % of control. The T/C by setting is: (dose: 67.0 mg/kg/injection, schedule: Q01DX005 (ip), vehicle: saline) 181 % of control; under setting [2], 182 % of control and 196 % of control; (dose: 110.0 mg/kg/injection, schedule: Q01DX001 (ip), vehicle: saline) 100 % of control; (dose: 150.0 mg/kg/injection, schedule: Q01DX005 (ip), vehicle: saline) 187 % of control; under setting [3], 185 % of control and 214 % of control; (dose: 200.0 mg/kg/injection, schedule: Q01DX009 (ip), vehicle: saline) 110 % of control. Besides, under “dose: 400.0 mg/kg/injection, schedule: Q01DX009 (ip), vehicle: saline”, the T/C was 88 % of control.

As for `C/C(CC(C)C)=N\NC(=O)CNC(=O)c1ccccc1`, the T/C runs as follows: (dose: 60.0 mg/kg/injection, schedule: Q01DX005 (ip), vehicle: saline with Tween-80) 100 % of control; (dose: 120.0 mg/kg/injection, schedule: Q01DX005 (ip), vehicle: saline with Tween-80) 106 % of control; (dose: 240.0 mg/kg/injection, schedule: Q01DX005 (ip), vehicle: saline with Tween-80) 95 % of control.

Take `CC(C)(C)OC(=O)NC(CCCCNC(=O)OCc1ccccc1)C(=O)O` (stereo not drawn): the T/C reads like this: (dose: 50.0 mg/kg/injection, schedule: Q01DX005 (ip), vehicle: distilled water + Tween-80 + alcohol) 92 % of control; under setting [1], 106 % of control; (dose: 100.0 mg/kg/injection, schedule: Q01DX005 (ip), vehicle: distilled water + Tween-80 + alcohol) 92 % of control; under setting [2], 100 % of control; under setting [3], 103 % of control.

Consider `COc1ccc2c(c1)CCc1c(-c3noc4c3CCc3cc(OC)ccc3-4)noc1-2`, for which the T/C was 92 % of control (dose: 60.0 mg/kg/injection, schedule: Q01DX005 (ip), vehicle: Klucel + Tween-80); 96 % of control (dose: 120.0 mg/kg/injection, schedule: Q01DX005 (ip), vehicle: Klucel + Tween-80); 100 % of control (dose: 240.0 mg/kg/injection, schedule: Q01DX005 (ip), vehicle: Klucel + Tween-80).

On to `Nc1nc(N)c(N=Nc2ccccc2)c(=O)[nH]1`, for which the T/C is 100 % of control (dose: 50.0 mg/kg/injection, schedule: Q01DX009 (ip), vehicle: saline with Tween-80); 86 % of control (dose: 50.0 mg/kg/injection, schedule: Q04DX003 (ip), vehicle: saline with Tween-80); 90 % of control (dose: 100.0 mg/kg/injection, schedule: Q01DX009 (ip), vehicle: saline with Tween-80); 95 % of control (dose: 100.0 mg/kg/injection, schedule: Q04DX003 (ip), vehicle: saline with Tween-80); 115 % of control (dose: 200.0 mg/kg/injection, schedule: Q01DX009 (ip), vehicle: saline with Tween-80); 95 % of control (dose: 200.0 mg/kg/injection, schedule: Q04DX003 (ip), vehicle: saline with Tween-80).

On to `COC(=O)CCCCCCCCCCCCC1C=CCC1` (stereo not drawn), for which the T/C is 100 % of control (dose: 100.0 mg/kg/injection, schedule: Q01DX001 (ip), vehicle: saline); 104 % of control (dose: 200.0 mg/kg/injection, schedule: Q01DX001 (ip), vehicle: saline); 104 % of control (dose: 400.0 mg/kg/injection, schedule: Q01DX001 (ip), vehicle: saline).

Regarding `COc1cccc2c1C(=O)c1c(O)c3c(c(O)c1C2=O)C[C@@](O)(C(C)=O)C[C@@H]3OC1CC(N=CCCCC=NC2CC(O[C@H]3C[C@](O)(C(C)=O)Cc4c(O)c5c(c(O)c43)C(=O)c3c(OC)cccc3C5=O)OC(C)C2O)C(O)C(C)O1` (stereo partly drawn), the T/C was 104 % of control (dose: 0.5 mg/kg/injection, schedule: Q04DX003 (ip), vehicle: distilled water + Tween-80); 110 % of control (dose: 1.0 mg/kg/injection, schedule: Q04DX003 (ip), vehicle: distilled water + Tween-80); 123 % of control (dose: 2.0 mg/kg/injection, schedule: Q04DX003 (ip), vehicle: distilled water + Tween-80); 122 % of control (dose: 16.0 mg/kg/injection, schedule: Q04DX003 (ip), vehicle: distilled water + Tween-80).
